The text below walks through data of patent publication US20190105261A1, “METHODS AND COMPOSITIONS FOR TOPICAL DELIVERY” (Illustris Pharmaceuticals, Inc., priority 2017, published 2019).

Data set [1] is described as follows: Sodium salicylate penetration into mid-dermal grafts, OD290 (Example 21). The conditions noted are these: 1% sodium salicylate, 12-20 hours.
Procedure: Replicates of mid-dermal grafts (grafts and punches for flux rig per Illustris sops), were employed in a transcutaneous flux rig per relevant protocols. […] Flux was continued for 12-20 hours with samples applied and left on donor surfaces.
Data set [2] can be described thus: Gabapentin delivery into porcine skin grafts, UPLC-MS. In kind it is in vitro ADME. Conditions: 1% gabapentin, 12-20 hours. The method, then:
Delivery of gabapentin with hyaluronic acid into skin in vitro was measured using porcine skin grafts, and compared to delivery of gabapentin from a composition of gabapentin in saline (with no decoy molecule). Groups consisted of A) 1% gabapentin in saline (n=8 replicates), B) 1% gabapentin plus 1% sodium hyaluronate decoy of 3,000 Da in saline (n=8 replicates) or C) saline alone (n=8 replicates) in donor cells.
Briefly, tissues were incubated overnight in 0.5 mL of 50% acetonitrile in deionized water at 55° C. with agitation. Calibration standards and tissue extraction solvent samples were diluted 10× in deionized water before analysis. Diluted standards and samples were analyzed at 1 μL injection volumes. Concentrations were reported as μg/g of gabapentin in tissue.

For data set [3] the following is noted: 1 wt. % minocycline, in vitro. The method, then: Delivery of minocycline into porcine skin in vitro was measured and compared to delivery of minocycline from a composition of minocycline in saline (i.e, with no decoy molecule). Compositions were prepared containing of 1 wt. % minocycline and 1% of decoy molecule of hyaluronic acid with three molecular weights: 10,000 Da mean, 20,000 Da mean, and 30,000 Da mean. A control formulation containing 1 wt % minocycline in saline was also prepared

The conditions of data set [4]: 12-20 hours.
Procedure: Porcine buccal tissue was harvested and cleaned of additional tissue. Punch biopsies (n=4 each) were obtained and employed in a transcutaneous flux rig per relevant protocols. […] Flux was continued for 12-20 hours with samples applied and left on donor surfaces.
The conditions of data set [5]: 1% sildenafil, 12-20 hours. The source says: Replicates of mid-dermal grafts were employed in a transcutaneous flux rig per relevant protocols.
For data set [6] the following is noted: in vivo, po; cited from earlier work.
A short description of data set [7]: Oral sildenafil bioavailability and assumed tissue concentration. The conditions noted are these: assuming uniform tissue distribution, average 75 kg male.

For the compound `O=C([O-])c1ccccc1O.[Na+]` [Sodium salicylate, sodium salicylate], in data set [1], the “OD290 above saline (sodium salicylate in skin homogenate)” value came to 0.0165 AU.
For the compound `NCC1(CC(=O)O)CCCCC1` [gabapentin alone, gabapentin], the “tissue levels of gabapentin” value in data set [2] was 0.09 μg of gabapentin per gram of tissue.
Consider `CN(C)c1ccc(O)c2c1C[C@H]1C[C@H]3[C@H](N(C)C)C(O)=C(C(N)=O)C(=O)[C@@]3(O)C(O)=C1C2=O` [minocycline], for which, in data set [3], the “penetration of minocycline into porcine skin” value is given as “low native penetration”.
With `O=C(O)c1ccccc1O` [salicylate alone, salicylate], the “salicylate penetration through buccal tissue versus saline alone” value in data set [4] was “not statistically significant over saline alone”.
In the case of `CCCc1nn(C)c2c(=O)[nH]c(-c3cc(S(=O)(=O)N4CCN(C)CC4)ccc3OCC)nc12` [Sildenafil alone, sildenafil], in data set [5], the sildenafil tissue concentration entry was “not detectable”. In data set [6], the bioavailability is 41%. Besides, the “tissue concentration at currently approved therapeutic dose” value in data set [7] was 0.137 ug sildenafil per g of tissue.
